# The source made the active and inactive calls. The rule behind the calls is not given here.
# Experiments:
# [1] = Inhibition of eIF2 protein expression in human U373 cells at 0.5 uM after 4 hrs by Western blotting method; format: functional, cell-based; settings: U-373MG ATCC
# [2] = Growth inhibition of human NCI-ADR-RES cells at 10 uM by NCI-60 cell inhibition assay; format: functional; settings: read-out: GI
# UACC-62 = assay: Growth inhibition of human UACC62 cells at 10 uM by NCI-60 cell inhibition assay; format: functional; settings: read-out: GI
# HCT-116 = assay: Growth inhibition of human HCT116 cells at 10 uM by NCI-60 cell inhibition assay; format: functional; settings: read-out: GI
# HOP-62 = assay: Growth inhibition of human HOP62 cells at 10 uM by NCI-60 cell inhibition assay; format: functional; settings: read-out: GI
# MDA-MB-468 = assay: Growth inhibition of human MDA-MB-468 cells at 10 uM by NCI-60 cell inhibition assay; format: functional; settings: read-out: GI
# OVCAR-8 = assay: Growth inhibition of human OVCAR8 cells at 10 uM by NCI-60 cell inhibition assay; format: functional; settings: read-out: GI
# OE33 = assay: Growth inhibition of human OE33 cells after 3 days by MTT assay; format: functional, cell-based; settings: OE33, 72 h
# SF-295 = assay: Growth inhibition of human SF295 cells at 10 uM by NCI-60 cell inhibition assay; format: functional; settings: read-out: GI
# M14 = assay: Growth inhibition of human M14 cells at 10 uM by NCI-60 cell inhibition assay; format: functional; settings: read-out: GI
# [3] = Growth inhibition of human OE21 cells after 3 days by MTT assay; format: functional, cell-based; settings: OE21, 72 h
# [4] = Cytostatic activity in human U373 cells at 0.4 uM assessed global growth ratio after 72 hrs by quantitative video microscopy; format: functional, U-373MG ATCC
# PC-3 = assay: Growth inhibition of human PC3 cells at 10 uM by NCI-60 cell inhibition assay; format: functional; settings: read-out: GI
# OVCAR-5 = assay: Growth inhibition of human OVCAR5 cells at 10 uM by NCI-60 cell inhibition assay; format: functional; settings: read-out: GI
# [5] = Growth inhibition of human Hs 578T cells at 10 uM by NCI-60 cell inhibition assay; format: functional; settings: read-out: GI
# NCI-H23 = assay: Growth inhibition of human NCI-H23 cells at 10 uM by NCI-60 cell inhibition assay; format: functional; settings: read-out: GI
# NCI-H322M = assay: Growth inhibition of human NCI-H322M cells at 10 uM by NCI-60 cell inhibition assay; format: functional; settings: read-out: GI
# UO-31 = assay: Growth inhibition of human UO31 cells at 10 uM by NCI-60 cell inhibition assay; format: functional; settings: read-out: GI
# [6] = Inhibition of eIF2 protein expression in human Hs683 cells at 0.5 uM after 4 hrs by Western blotting method; format: functional, cell-based; settings: Hs 683
# [7] = biological target: Dual specificity tyrosine-phosphorylation-regulated kinase 1A (Homo sapiens, UniProt Q13627); assay: Inhibition of DYRK1A kinase using RBER-CHKtide substrate by radiometric protein kinase assay
# [8] = Solubility of compound at pH 7.4; format: physicochemical; settings: buffer, read-out: solubility
Compound,inhibition [1],inhibition of growth at 10 µM [2],inhibition of growth at 10 µM (UACC-62),inhibition of growth at 10 µM (HCT-116),inhibition of growth at 10 µM (HOP-62),inhibition of growth at 10 µM (MDA-MB-468),inhibition of growth at 10 µM (OVCAR-8),IC50 (OE33),inhibition of growth at 10 µM (SF-295),inhibition of growth at 10 µM (M14),IC50 [3],Ratio [4],inhibition of growth at 10 µM (PC-3),inhibition of growth at 10 µM (OVCAR-5),inhibition of growth at 10 µM [5],inhibition of growth at 10 µM (NCI-H23),inhibition of growth at 10 µM (NCI-H322M),inhibition of growth at 10 µM (UO-31),inhibition [6],solubility [8],further results
Cc1c2c(cc[n+]1Cc1ccccc1)c1ccc(OCC3CCCCC3)cc1n2CC1CCCCC1.[Br-],inactive,31.5%,-94%,-98.3%,-95%,-86.6%,-90.1%,370 nM,-92.8%,-84.6%,420 nM,0.25,-75.8%,-95.5%,-36.2%,-76.7%,-83.2%,-93.1%,inactive,123 µM,IC50 [7]: 43000 nM
Cc1c2c(cc[n+]1Cc1ccccc1)c1ccc(OCc3ccccc3)cc1n2Cc1ccccc1.[Br-],Active,65%,-87.1%,-95.6%,-70.9%,-42.3%,-70.9%,700 nM,-69.2%,-87.9%,1300 nM,0.4,-44.8%,13.5%,-35.9%,-12.2%,-26.9%,-18.2%,Active,461 µM,–

# Source: ChEMBL document CHEMBL2163222 (J Med Chem, 2012)
